Laboratory results as given in patent publication US7981443B2, “Method of treating sleep disordered breathing using topiramate” (priority 2000, dated 2011).

Legend:
[1] = system: obstructive sleep apnoea (OSA); assay: Double-blind, placebo controlled cross-over study of topiramate in patients with light to moderate OSA; format: in vivo
Experimental: A double-blind, placebo controlled cross-over study of topiramate was undertaken in 2 patients with light to moderate OSA (A/H index, 22 and 35 on previous screening). Topiramate (100 mg b.i.d or corresponding placebo) was administered for 10 days in each cross-over period. A wash-out period of one week was applied between the two treatment periods.

[2] = system: carbonic anhydrase; details: cited from earlier work
[3] = system: glutamate in the hippocampus; details: in vivo; cited from earlier work
[4] = system: voltage-gated sodium electrogenesis; details: specific action on voltage-gated sodium electrogenesis in certain areas of the nervous system; cited from earlier work
[5] = system: aminohydroxymethylisoxazole propionic acid (AMPA) glutamate receptor subtype site; details: rat hippocampal pyramidal neurones; effect at AMPA site; cited from earlier work
[6] = system: N-methyl-D-aspartate (NMDA) mediated glutamate receptor subtype site; details: cited from earlier work

Structure (SMILES): CC1(C)O[C@@H]2[C@@H](CO[C@@]3(COS(N)(=O)=O)OC(C)(C)O[C@@H]23)O1 [topiramate, 2,3:4,5-di-o-isopropylidene-β-D-fructopyranose sulfamate]
- Blood pressure ([1]; between the two study nights (topiramate vs placebo)): did not differ
- Side effects ([1]; during the study period): No side effects were reported
- A/H index during topiramate ([1]; first patient (placebo 24), 100 mg b.i.d for 10 days): 9
- A/H index during topiramate ([1]; second patient (placebo 33), 100 mg b.i.d for 10 days): 6
- Daytime sleepiness ([1]; spontaneous reporting by both patients, 100 mg b.i.d for 10 days): markedly reduced
- Inhibition of the enzyme carbonic anhydrase [2]: weakly inhibit
- Abnormally high concentrations of glutamate in the hippocampus [3]: reduce
- Cellular activity / cellular bursting activity [4]: dose-dependently reduce cellular activity
- Kainate-elicited excitatory response [5]: blocked
- Effect at the NMDA mediated glutamate receptor subtype site [6]: had no effect
